According to patent publication US20230293526A1, “METHOD FOR TREATING CANCER WITH A REVERSE TRANSCRIPTASE INHIBITOR” (PrimeFour Therapeutics, Inc., priority 2020, published 2023):

system: human LINE-1; assay: Human LINE-1 (L1) retrotransposition dual-luciferase reporter assay in HeLa cells; format: cell-based; settings: 72 hours, read-out: Human LINE-1 IC50 (Human L1 activity inhibition)
Procedure: Representative compounds were tested for inhibition of retrotransposition activity of human LINE-1 (L1) retrotransposition reporter assay in HeLa cells according to the following procedure.
Human Cervical Adenocarcinoma Cells (HeLa) were cultured in Dulbecco's Modified Eagle's Medium (DMEM) containing 4500 mg/L glucose, L-glutamine, sodium pyruvate and sodium bicarbonate, supplemented with 10% of heat inactivated fetal bovine serum (FBS). Cells were grown at 37° C. in an atmosphere of 5% CO2. The dual luciferase-encoding plasmid pYX017 was provided by Prof Wenfeng An (Xie, et al., 2011, Nucleic Acids Res).
The reporter assay was performed in 96-well white, optical bottom plates (Thermo Fisher, 165306). 24 hours prior to transfection, HeLa cells were seeded in a density of 2,500 cells per well, in 50 μL of DMEM, 10% FBS media volume. Cells were incubated at 37° C. in an atmosphere of 5% CO2. Seeding was optimized to achieve approximately 30% cell confluency on the day of transfection. A transfection mix was prepared by combining transfection reagent FuGENE® HD (Promega, E2311) and plasmid DNA (100 ng per well) in a 3:1 ratio, in OpiMEM media (Thermo Fisher, 31985062). Next, 5 μL of the transfection mix was combined with 20 μL of DMEM, 10% FBS media, and 25 μL of this mix was added into each well of an assay plate. In each assay plate one column remained untransfected to serve as a blank luminescence signal.
Serial dilution of test compounds was performed in DMSO and transferred to medium. Next, 25 μL of media-diluted compounds series were transferred to an assay plate containing cells and transfection media. The final concentration of DMSO in treated wells was 0.2%. Serial dilutions of compounds were added to an assay plate immediately after transfection. Compounds were tested in triplicates. The assay plate was then incubated with transfection reagent and compounds at 37° C. in an atmosphere of 5% CO2 for 72 hours.
Luciferase reporter activity was quantified with the Dual-Luciferase® Reporter Assay System (Promega) following the manufacturer's manual, with a passive lysis buffer volume increased to 30 μL and lysis incubation time increased to 20 min at room temperature with gentle shaking, to ensure complete cell lysis. Luminescence was measured using a SpectraMax i3×Multi-Mode Microplate Reader, with integration times of 100 ms and 10 ms applied to measure FLuc and RLuc signals, respectively. Relative LNE-1 activity was calculated as Firefly signal/Renilla signal*10,000. In order to determine IC50 values for each compound, dose response data were fit to a logistic using non-linear regression.

| IC50 [nM] | SMILES |
| --- | --- |
| 23400 | C#C[C@]1(CO)O[C@@H](n2cnc3c(N)nc(N)nc32)C[C@@H]1O [compound 22] |
| 2.6 | CC[C@]1(CO)O[C@@H](n2cnc3c(N)nc(N)nc32)C[C@@H]1O [compound 27] |
| 6.2 | C#C[C@]1(CO)O[C@@H](n2cnc3c(N)nc(N)nc32)C[C@@H]1O [compound 12] |
| 2700 | C[C@H](Cn1cnc2c(N)ncnc21)OCP(=O)(O)O [Tenofovir, reference compound] |

same assay, conditions: Homo sapiens, 72 hours, read-out: Human LINE-1 IC50 (Human L1 activity inhibition)

| SMILES | IC50 [nM] |
| --- | --- |
| CC(C)OC(=O)[C@H](C)N[P@](=O)(CO[C@H](C)Cn1cnc2c(N)ncnc21)Oc1ccccc1 [Tenofovir Alafenamide (TAF), Tenofovir Alafenamide, reference compound] | 10 |

same assay, conditions: Homo sapiens, HeLa, 72 h, read-out: Human LINE-1 IC50 (Human L1 activity inhibition)

| IC50 [nM] | SMILES |
| --- | --- |
| 10 | C=C[C@]1(CO)O[C@@H](n2ccc(N)nc2=O)C[C@@H]1O [compound 24] |
| 11 | C=C[C@]1(CO)O[C@@H](n2cnc3c(N)nc(F)nc32)C[C@@H]1O [compound 20, (2R,3S,5R)-5-(6-amino-2-fluoro-9H-purin-9-yl)-2-(hydroxymethyl)-2-vinyltetrahydrofuran-3-ol] |
| 530 | O=c1[nH]cnc2c1ncn2[C@H]1CC[C@@H](CO)O1 [Didanosine, reference compound] |
| 1450 | C=C1[C@H](CO)[C@@H](O)C[C@@H]1n1cnc2c(=O)[nH]c(N)nc21 [Entecavir, reference compound] |
| 6340 | Nc1ccn([C@H]2CO[C@@H](CO)S2)c(=O)n1 [Apricitabine, reference compound] |
| 750 | Cc1cn([C@H]2C=C[C@@H](CO)O2)c(=O)[nH]c1=O [Stavudine, reference compound] |
| 66 | Nc1ccn([C@H]2CC[C@@H](CO)O2)c(=O)n1 [Zalcitabine, reference compound] |
| 18600 | C#C[C@]1(CO)O[C@@H](n2cc(C)c(N)nc2=O)C[C@@H]1O [compound 6] |
| > 50000 | C#C[C@]1(CO)O[C@@H](n2cnc3c(N)ncnc32)C[C@@H]1O [compound 23] |
| 660 | Nc1ccn([C@@H]2CS[C@H](CO)O2)c(=O)n1 [Lamivudine, reference compound] |
| 490 | C#C[C@]1(CO)O[C@@H](n2cc(Br)c(=O)[nH]c2=O)C[C@@H]1O [compound 4] |
| 630 | Cc1cn([C@H]2C[C@H](N=[N+]=[N-])[C@@H](CO)O2)c(=O)[nH]c1=O [AZT, zidovudine, reference compound] |
| > 12500 | C#C[C@@]1(CO)C=C[C@H](n2cnc3c(N)nc(F)nc32)O1 [compound 19] |
| 480 | Nc1nc(=O)n([C@@H]2CS[C@H](CO)O2)cc1F [Emtricitabine (FTC), Emtricitabine, reference compound] |

More lines, now with the values behind:

| SMILES | IC50 [nM] |
| --- | --- |
| C#C[C@]1(CO)O[C@@H](n2cc(C)c(=O)[nH]c2=O)C[C@@H]1O [compound 2] | 390 |
| O=C1Nc2ccc(Cl)cc2[C@@](C#CC2CC2)(C(F)(F)F)O1 [Efavirenz, reference compound] | > 50000 |
| CC[C@]1(CO)O[C@@H](n2cc(C)c(=O)[nH]c2=O)C[C@@H]1O [compound 26] | 2050 |
| CC#C[C@]1(CO)C=C[C@H](n2cc(C)c(=O)[nH]c2=O)O1 [compound 16] | > 25000 |
| C=C[C@@]1(CO)C=C[C@H](n2cc(C)c(=O)[nH]c2=O)O1 [compound 18] | 12500 |
| Cc1ccnc2c1NC(=O)c1cccnc1N2C1CC1 [Nevirapine, reference compound] | > 50000 |
| CC(C)OC(=O)OCOP(=O)(CO[C@H](C)Cn1cnc2c(N)ncnc21)OCOC(=O)OC(C)C [Tenofovir Disoproxil, reference compound] | 190 |
| Nc1ncnc2c1ncn2CCOCP(=O)(O)O [Adefovir, reference compound] | > 6250 |
| C#C[C@@]1(CO)C=C[C@H](n2cc(C)c(=O)[nH]c2=O)O1 [Censavudine, reference compound] | 70 |
| C#C[C@@]1(CO)C=C[C@H](n2cc(Br)c(=O)[nH]c2=O)O1 [compound 17] | 910 |
